Assay results reported in patent US20080249042A1, “All-Trans-Retinol: All-Trans-13,14-Dihydroretinol Saturase and Methods of Its Use” (UNIVERSITY OF WASHINGTON, priority 2004, published 2008).

How the values were obtained:
RAR/RXR heterodimers = assay: F9-RARE-lacZ DR5 RARE reporter cell assay; settings: linear part of the dose-response curve
Description: RARE and RXRE Activation Assay. […] The RA-responsive F9 cell line was transfected with a reporter construct of an RARE derived from the human retinoic acid receptor-β gene (RAR-β) placed upstream of the Escherichia coli lacZ gene. […] Cells were grown in L15-CO2 media containing N-3 supplements and antibiotics. […] After 24 h, cells were split into 24-well plates to ensure an equal number of transfected cells in each assay well. Cells were stimulated with appropriate concentrations of all-trans-RA, 9-cis-RA, or all-trans-DRA. After 48 h, the expression of β-galactosidase was assayed as described above.

mouse RXR-α = target: T1, mouse RXR-α (Mus musculus, UniProt P28700); assay: RXRE (DR1) activation assay, HEK-293S cells with pRXRE-BLUE and RXR-α; format: cell-based; settings: cotransfected with mouse RXR-α, 48 h
T1 construct: The RXR-α open reading frame was then subcloned into the pcDNA3.1 Directional TOPO vector; expressed in transfected cells; host or cells: N-acetylglucosaminyltransferase I-negative HEK-293S
T1 sequence (P28700 1-467): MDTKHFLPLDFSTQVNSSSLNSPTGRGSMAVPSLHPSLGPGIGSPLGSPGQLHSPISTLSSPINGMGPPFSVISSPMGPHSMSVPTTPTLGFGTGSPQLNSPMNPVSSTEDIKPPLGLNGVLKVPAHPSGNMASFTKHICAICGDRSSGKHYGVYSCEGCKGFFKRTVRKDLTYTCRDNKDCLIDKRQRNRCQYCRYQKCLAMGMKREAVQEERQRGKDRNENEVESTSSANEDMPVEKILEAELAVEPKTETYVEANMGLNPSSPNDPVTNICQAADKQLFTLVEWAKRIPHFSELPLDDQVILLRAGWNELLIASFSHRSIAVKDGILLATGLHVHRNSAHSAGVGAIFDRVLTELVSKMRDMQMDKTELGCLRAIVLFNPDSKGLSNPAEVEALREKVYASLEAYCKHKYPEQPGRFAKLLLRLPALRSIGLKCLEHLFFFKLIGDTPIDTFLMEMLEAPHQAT

LRAT = target: T2, LRAT (Mus musculus, UniProt Q9JI60); assay: Esterification assay, RPE microsomes and HEKK-LRAT cell homogenate; format: biochemical; settings: 10 min, 37° C.
T2 construct: For expression Lrat coding region was amplified using the primers; expressed in transfected cells; membrane homogenate
T2 sequence (Q9JI60 1-231): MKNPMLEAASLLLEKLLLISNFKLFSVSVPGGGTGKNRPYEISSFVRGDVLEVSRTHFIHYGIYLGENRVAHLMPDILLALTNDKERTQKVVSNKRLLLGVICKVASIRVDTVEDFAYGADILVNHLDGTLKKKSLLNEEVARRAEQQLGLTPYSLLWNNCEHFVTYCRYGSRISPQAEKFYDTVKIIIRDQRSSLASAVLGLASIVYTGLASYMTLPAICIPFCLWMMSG
From the text: Inducible-Expression Of LRAT Protein in HEKK Cells. Mouse Lrat cDNA was cloned as described elsewhere. For expression Lrat coding region was amplified using the primers: 5′-[…]-3′ (SEQ ID NO: 11) and […] (SEQ ID NO: 12). The PCR product was ligated into the pCR-Blunt II-TOPO vector (Invitrogen) and then subcloned into the EcoRI site of pCDNA4/TO. TetR-expressing HEKK cells were transfected with the pCDNA4/TO-Lrat construct and selected with zeocin. Stable clones were verified for expression of Lrat protein using the anti-LRAT monoclonal antibody described elsewhere (2).
Esterification assay of all-trans-retinol and all-trans-13,14-dihydroretinol. HEKK-LRAT cells were homogenized in 250 mM sucrose, 10 mM Tris-HCl with the aid of a douncer. RPE microsomes were prepared as previously described. Stecher, et al. J Biol Chem 274:8577-8585, 1999. A substrate solution, 2 μL of 1 mM stock in DMF, was added to a 1.5 ml Eppendorf tube containing 20 μL of 10% BSA and 20 μL of UV-treated RPE microsomes or 100 μL of membrane homogenate of HEKK-LRAT cells and 10 mM BTP (pH 7.5) buffer to a total volume of 200 μL. […] Then 100 μL of the hexane extract was analyzed by normal-phase HPLC, using first 0.5% ethyl acetate in hexane for 10 min to separate retinyl esters and then 20% ethyl acetate in hexane for an additional 10 min to separate retinols. Elution was monitored at 290 nm and 325 nm.

mouse RetSat [1] = target: T3, mouse RetSat (Mus musculus, UniProt Q64FW2); settings: earlier report, Moise et al. 2004; cited from earlier work
T3 construct: expressed in transfected cells
T3 sequence (Q64FW2 26-609): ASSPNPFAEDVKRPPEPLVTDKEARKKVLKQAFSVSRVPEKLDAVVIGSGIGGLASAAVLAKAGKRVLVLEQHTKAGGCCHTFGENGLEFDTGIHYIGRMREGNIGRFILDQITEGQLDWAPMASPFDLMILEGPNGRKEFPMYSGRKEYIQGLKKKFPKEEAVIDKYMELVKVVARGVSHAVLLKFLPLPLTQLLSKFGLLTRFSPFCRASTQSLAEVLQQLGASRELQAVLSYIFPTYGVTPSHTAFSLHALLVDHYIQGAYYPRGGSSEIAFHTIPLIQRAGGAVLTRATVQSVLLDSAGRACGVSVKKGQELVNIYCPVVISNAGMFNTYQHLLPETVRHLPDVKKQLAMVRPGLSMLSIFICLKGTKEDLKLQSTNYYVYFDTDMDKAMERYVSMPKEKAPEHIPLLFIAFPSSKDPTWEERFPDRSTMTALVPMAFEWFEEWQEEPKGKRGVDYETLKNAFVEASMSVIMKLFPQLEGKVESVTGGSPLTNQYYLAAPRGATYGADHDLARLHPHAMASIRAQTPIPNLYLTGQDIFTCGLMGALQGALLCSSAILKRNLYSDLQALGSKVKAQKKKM

mouse RetSat [2] = target: T3, mouse RetSat; assay: Saturase activity in homogenized HEKK-RetSat cells; format: biochemical; settings: membrane homogenate, 40 μM substrate, 1 hr
Description: Enzymatic assays for saturase activity in homogenized cells. Cells were homogenized with 15 mM Tris-HCl, pH 8.0, containing 10 mM dithiothreitol and 0.32 M sucrose. One aliquot of cells was boiled for 10 min at 95° C. as a negative control. Cell aliquots of 200 μl were supplemented with 1 mM ATP and 40 μM all-trans-retinol final concentrations. Some aliquots were also supplemented with 0.4 mM NADH or 0.4 mM NADPH to regenerate the redox state of the reaction. The cell homogenate was incubated with retinol substrate with shaking at 37° C. for 1 hr in the dark. This was followed by the extraction of retinoids with one volume of methanol and two volumes of hexane. The organic phase was dried and resuspended in hexane and then examined by normal-phase HPLC.

For CC1=C(/C=C/C(C)=C/C=C/C(C)CC(=O)O)C(C)(C)CCC1 (stereo not drawn) [all-trans-DRA, all-trans-13,14-dihydroretinoic acid], the “Fold less effective than all-trans-RA in activating DR5-response elements” value (RAR/RXR heterodimers) was “about 100 fold” and the “Activation of RXR-mediated transcription (DR1 elements)” value (mouse RXR-α) was “very weak RXR activator”.

With CC1=C(/C=C/C(C)=C/C=C/C(C)CCO)C(C)(C)CCC1 (stereo not drawn) [all-trans-DROL, all-trans-13,14-dihydroretinol] the “Esterification by LRAT (substrate activity)” value (LRAT) was “as good a substrate for LRAT as all-trans-retinol”.

In the case of CC1=C(/C=C/C(C)=C/C=C/C(C)=C/C(=O)O)C(C)(C)CCC1 [all-trans-RA, all-trans-retinoic acid, reference compound], the “Saturation by RetSat” value (mouse RetSat [1]) is listed as “does not saturate”.

In the case of CC1=C(/C=C/C(C)=C/C=C/C(C)=C/CO)C(C)(C)CCC1 [all-trans-ROL, all-trans-retinol], the “all-trans-13,14-dihydroretinol produced” value (mouse RetSat [2]) is reported as “little”.
